Data as given in patent publication US10792274B2, “Dehydroacetic acid (DHAA) and derivative for uses in treating cancer” (Emory University, priority 2016, dated 2020).
“Also recorded” adds a separate entry of the source.

How the values were obtained:
[1] = serum and tumor metabolite levels and body weight of xenograft mice; format: in vivo
[2] = tested on: NRAS Q61K-expressing HMCB cells; assay: HMCB xenograft in nude mice; format: in vivo; details: for BRAF-MEK1 binding in tumors / cell proliferation rates in tumors (Ki67 IHC staining) / phosphorylation of MEK1 and ERK1/2 (MEK-ERK activation) in tumors / xenograft tumor growth (growth rates, sizes, masses): single agent; for xenograft tumor growth (growth rates, sizes, masses): normal diet
[3] = chronic injection of acetoacetate or 3HB to nude mice; format: in vivo; details: chronic injection for 4 weeks
[4] = tested on: diverse BRAF V600E positive or negative human melanoma cells; assay: control treatments of melanoma cells; format: cell-based
Procedure: (§1) To exclude potential effects of the lithium ion, a series of experiments were performed using a control salt lithium chloride.
In addition, similar studies were performed to exclude possible effects from the potential degradation product of acetoacetate, acetone.

BRAF V600E [5] = biological target: T1, BRAF V600E (Homo sapiens, UniProt P15056, V600E); assay: thermal melt shift assay, purified recombinant protein; format: binding
T1 sequence (P15056 whole entry V600E): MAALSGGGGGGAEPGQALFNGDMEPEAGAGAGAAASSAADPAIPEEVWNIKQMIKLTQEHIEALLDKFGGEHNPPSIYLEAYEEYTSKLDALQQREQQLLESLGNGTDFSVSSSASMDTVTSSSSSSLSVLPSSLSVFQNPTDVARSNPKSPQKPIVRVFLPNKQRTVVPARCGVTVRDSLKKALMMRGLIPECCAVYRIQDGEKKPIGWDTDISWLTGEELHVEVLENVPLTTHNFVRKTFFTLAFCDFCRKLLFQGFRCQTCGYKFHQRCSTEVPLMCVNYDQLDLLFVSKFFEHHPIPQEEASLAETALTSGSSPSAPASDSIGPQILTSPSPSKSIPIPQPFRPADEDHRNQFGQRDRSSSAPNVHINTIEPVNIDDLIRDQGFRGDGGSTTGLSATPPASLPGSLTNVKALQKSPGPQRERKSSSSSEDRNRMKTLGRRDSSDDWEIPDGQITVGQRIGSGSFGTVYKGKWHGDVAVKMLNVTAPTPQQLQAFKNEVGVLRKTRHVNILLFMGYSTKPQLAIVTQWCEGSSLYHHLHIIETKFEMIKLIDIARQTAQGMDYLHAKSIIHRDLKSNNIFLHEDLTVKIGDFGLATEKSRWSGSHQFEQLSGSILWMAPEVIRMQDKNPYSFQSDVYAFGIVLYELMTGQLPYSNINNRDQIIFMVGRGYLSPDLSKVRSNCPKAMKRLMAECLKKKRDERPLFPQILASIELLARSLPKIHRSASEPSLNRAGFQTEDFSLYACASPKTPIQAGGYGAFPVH
Procedure: Arrows in the panel indicate melting temperatures at 0 μM (left) and 400 μM (right).
(§2) Whether functional inhibition of acetoacetate would attenuate BRAF V600E tumor growth was examined. Dehydroacetic acid (DHAA) (FIG. 4A) is an inhibitory homologue of acetoacetate.

BRAF V600E-MEK1 binding = BRAF V600E-MEK1 binding (Homo sapiens, UniProt P15056, V600E); assay: cell-free in vitro coupled protein-protein binding and kinase assay; format: biochemical; details: substance alone
Chain of BRAF V600E-MEK1 binding (P15056 whole entry V600E): as above
Procedure: (§3) Whether DHAA inhibits BRAF V600E directly was examined. […] In contrast, DHAA had no effect on BRAF WT-MEK1 binding or MEK1 phosphorylation in a control experiment using purified BRAF WT incubated with MEK1 in the presence of acetoacetate (FIG. 4I left panel). […] This is physiologically consistent with the acetoacetate levels determined as approximately 300 μM in stable HMGCL knockdown A375 and A2058 cells.

[6] = tested on: BRAF V600E-expressing human melanoma A375 cells; assay: A375 xenograft in nude mice; format: in vivo; details: for BRAF V600E-MEK1 binding in tumors / cell proliferation rates in tumors (Ki67 IHC staining) / xenograft tumor growth (growth rates, sizes, masses) / phosphorylation of MEK1 and ERK1/2 in tumors: single agent; for xenograft tumor growth (growth rates, sizes, masses): normal diet
BRAF V600E [7] = biological target: T1, BRAF V600E; assay: BRAF V600E kinase activity (Vmax and Km), MEK1 as substrate; format: biochemical; details: acetoacetate binding; MEK1 as substrate
Procedure: as §3

[8] = tested on: diverse BRAF V600E-expressing cells; assay: DHAA with or without acetoacetate treatment of cells; format: cell-based; details: DHAA plus acetoacetate treatment
BRAF V600R-MEK1 binding = BRAF V600R-MEK1 binding (Homo sapiens, UniProt P15056, V600R); assay: MEK1 binding to BRAF mutants; format: biochemical
Chain of BRAF V600R-MEK1 binding (P15056 whole entry V600R): as the sequence (P15056 whole entry V600E) above, with E600R counted along it
Chain of BRAF V600R-MEK1 binding (Q02750 whole entry partner): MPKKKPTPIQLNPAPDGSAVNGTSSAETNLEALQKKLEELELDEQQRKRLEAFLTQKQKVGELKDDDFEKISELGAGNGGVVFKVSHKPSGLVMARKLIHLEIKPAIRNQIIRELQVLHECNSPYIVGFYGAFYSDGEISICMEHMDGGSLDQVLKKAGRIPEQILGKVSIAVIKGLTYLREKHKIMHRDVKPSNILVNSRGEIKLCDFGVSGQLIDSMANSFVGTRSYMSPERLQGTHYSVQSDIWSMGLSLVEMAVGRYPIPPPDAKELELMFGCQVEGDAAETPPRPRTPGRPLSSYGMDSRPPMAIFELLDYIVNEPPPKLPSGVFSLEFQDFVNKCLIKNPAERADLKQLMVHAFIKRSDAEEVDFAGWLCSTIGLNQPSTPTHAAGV

BRAF V600D-MEK1 binding = BRAF V600D-MEK1 binding (Homo sapiens, UniProt P15056, V600D); assay: MEK1 binding to BRAF mutants; format: biochemical
Chain of BRAF V600D-MEK1 binding (P15056 whole entry V600D): as the sequence (P15056 whole entry V600E) above, with E600D counted along it
Chain of BRAF V600D-MEK1 binding (Q02750 whole entry partner): as the sequence (Q02750 whole entry partner) above

[9] = format: physicochemical
Procedure: as §1

BRAF V600R = BRAF V600R (Homo sapiens, UniProt P15056, V600R); assay: 14C-labeled acetoacetate binding assay
Chain of BRAF V600R (P15056 whole entry V600R): as the sequence (P15056 whole entry V600E) above, with E600R counted along it
Procedure: (§4) BRAF wild type and mutant proteins were incubated with increasing concentrations of ^14C-labeled acetoacetate.
(§5) A series of radiometric metabolite-protein interaction analyses were performed using ^14C labeled acetoacetate incubated with purified BRAF variants in the presence and absence of DHAA.

BRAF V600D = BRAF V600D (Homo sapiens, UniProt P15056, V600D); assay: 14C-labeled acetoacetate binding assay
Chain of BRAF V600D (P15056 whole entry V600D): as the sequence (P15056 whole entry V600E) above, with E600D counted along it
Procedure: as §4, §5

[10] = tested on: control V600A mutant or other clinically reported BRAF mutants including K507E, N581S, D594N, L597Q, K601E, and S616F; assay: 14C-labeled acetoacetate binding assay, other BRAF mutants
Procedure: as §4, §5

[11] = tested on: Me1-ST cells expressing BRAF V600E; assay: immortalized melanocyte treatment: proliferation, MEK-ERK activation, BRAF-MEK1 binding; format: cell-based; details: DHAA plus acetoacetate rescue treatment
BRAF V600E [12] = biological target: T1, BRAF V600E; assay: 14C-labeled acetoacetate binding assay (radiometric metabolite-protein interaction)
Procedure: as §4, §5

FLAG-tagged BRAF V600E = biological target: T2, FLAG-tagged BRAF V600E (Homo sapiens, UniProt P15056, V600E); assay: cellular thermal shift assay, lysates of transfected 293T cells; format: binding; details: 400 μM
T2 construct: FLAG; expressed in transfected cells; host or cells: 293T cells (lysates)
T2 sequence (P15056 whole entry V600E): as the sequence (P15056 whole entry V600E) above
Excerpt: as §2

[13] = biological target: T3, V600E mutant of an active, truncated C-terminal domain of BRAF (tBRAF, 416-766 aa) (Homo sapiens, UniProt P15056, V600E); assay: 14C-labeled acetoacetate binding assay
T3 construct: truncated C-terminal domain of BRAF (tBRAF, 416-766 aa)
T3 sequence (P15056 416-766 V600E): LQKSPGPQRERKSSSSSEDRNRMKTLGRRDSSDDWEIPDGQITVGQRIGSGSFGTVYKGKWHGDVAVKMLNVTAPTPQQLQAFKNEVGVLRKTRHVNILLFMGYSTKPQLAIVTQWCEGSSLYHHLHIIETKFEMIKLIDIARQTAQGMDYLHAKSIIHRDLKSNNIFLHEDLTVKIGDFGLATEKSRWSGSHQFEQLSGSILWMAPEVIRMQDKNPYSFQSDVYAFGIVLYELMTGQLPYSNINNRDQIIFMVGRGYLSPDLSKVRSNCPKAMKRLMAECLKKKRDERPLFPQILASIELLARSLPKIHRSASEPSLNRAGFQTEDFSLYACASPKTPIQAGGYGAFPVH
Procedure: as §5

[14] = tested on: other BRAF mutants-MEK1 binding; assay: MEK1 binding to BRAF mutants; format: biochemical
[15] = tested on: BRAF V600E-expressing human melanoma A2058 cells; assay: A2058 xenograft in nude mice; format: in vivo
Excerpt: Xenograft tumor growth and in nude mice inoculated with BRAF V600E-positive human melanoma A2058 fed with normal or high-fat diets followed by intraperitoneal injection with DHAA.

[16] = acetoacetate injection in mice treated with fluvastatin, niacin or fenofibrate
[17] = increasing concentrations of 14C-labeled acetoacetate
[18] = DHAA plus intraperitoneal acetoacetate

## C[C@@H](O)CC(=O)O [3HB, D-β-hydroxybutyrate]
[1]; effect of treatment
  serum levels of 3HB (β-hydroxybutyrate): increased serum levels of β-hydroxybutyrate
[2]
  BRAF-MEK1 binding in tumors: did not affect
  cell proliferation rates in tumors (Ki67 IHC staining): did not affect
  phosphorylation of MEK1 and ERK1/2 (MEK-ERK activation) in tumors: did not affect
  xenograft tumor growth (growth rates, sizes, masses): had no effect on growth rates or masses of tumor xenografts
[3]
  acetoacetate or 3HB levels in urine: did not alter
  serum 3HB levels: increased 3HB

## [Cl-].[Li+] [lithium chloride]
[1]; effect of treatment
  serum cholesterol levels: nor did it affect
  serum levels of 3HB (β-hydroxybutyrate): nor did it affect
[4]
  BRAF V600E-MEK1 binding: did not affect
  cell proliferation rates: did not affect
  phosphorylation levels of MEK1 or ERK1/2: did not affect
BRAF V600E [5]
  binding in thermal melt shift assay: did not bind
BRAF V600E-MEK1 binding
  promotion of association between purified BRAF V600E and MEK1: did not
[6]
  BRAF V600E-MEK1 binding in tumors: nor did it affect
  cell proliferation rates in tumors (Ki67 IHC staining): nor did it affect
  xenograft tumor growth (growth rates, sizes, masses): did not affect tumor growth potential

## CC(=O)CC(=O)O [acetoacetate]
BRAF V600E [7]
  Km of BRAF V600E: slightly decreased Km
  Vmax of BRAF V600E: increased Vmax
[8]
  reversal by acetoacetate of DHAA-decreased MEK-ERK activation: could not be reversed
  reversal by acetoacetate of DHAA-reduced cell proliferation: could not be reversed
BRAF V600R-MEK1 binding
  promotion of MEK1 binding to BRAF V600R with increased MEK1 phosphorylation: promoted MEK1 binding
[1]; acetoacetate injection in DHAA-treated A375 xenograft mice
  serum levels of acetoacetate: increased serum levels of acetoacetate
[1]; [16]
  serum 3HB levels: did not affect 3HB levels
  serum acetoacetate levels: rescued the decreased serum acetoacetate levels
[1]; effect of treatment
  serum levels of 3HB (β-hydroxybutyrate): did not affect serum levels of 3HB
  serum levels of acetoacetate: increased serum levels of acetoacetate
BRAF V600D-MEK1 binding
  promotion of MEK1 binding to BRAF V600D with increased MEK1 phosphorylation: promoted MEK1 binding
[2]; intraperitoneal acetoacetate, fenofibrate study
  effect of acetoacetate injection on tumor growth potential: had no effect on tumor growth potential
[2]
  BRAF-MEK1 binding in tumors: did not affect
  cell proliferation rates in tumors (Ki67 IHC staining): did not affect
  phosphorylation of MEK1 and ERK1/2 (MEK-ERK activation) in tumors: did not affect
  xenograft tumor growth (growth rates, sizes, masses): had no effect on growth rates or masses of tumor xenografts
[9]
  stability of anion form relative to acid form: approximately 55 times
BRAF V600R
  binding of 14C-labeled acetoacetate: bound
BRAF V600R; [17]
  Kd: ~113 µM
BRAF V600D
  binding of 14C-labeled acetoacetate: bound
BRAF V600D; [17]
  Kd: ~93 µM
[10]
  binding of 14C-labeled acetoacetate: but not to a negative control mutant V600A or to other clinically reported BRAF mutants
[11]
  reversal by acetoacetate of the inhibitory effect of DHAA on cell proliferation: did not reverse
BRAF V600E [12]; [17]
  Kd: ~92 µM
BRAF V600E [12]; purified BRAF V600E
  binding of 14C-labeled acetoacetate: binds to purified BRAF V600E; also recorded: specifically bound
FLAG-tagged BRAF V600E
  binding in cellular thermal shift assay: bound only to BRAF V600E
BRAF V600E-MEK1 binding
  promotion of association between purified BRAF V600E and MEK1: promoted MEK1 binding
[3]
  acetoacetate or 3HB levels in urine: did not alter
  serum acetoacetate levels: increased serum acetoacetate
[13]
  binding of 14C-labeled acetoacetate: specifically bound
[14]
  promotion of MEK1 binding to other BRAF mutants: but not to other BRAF mutants
[6]; [18]
  reversal by acetoacetate injection of DHAA inhibition of BRAF V600E-MEK1 binding in tumors: did not reverse
  reversal by acetoacetate injection of DHAA inhibition of MEK1 and ERK1/2 phosphorylation in tumors: did not reverse
  reversal by acetoacetate injection of DHAA inhibition of cell proliferation rates (Ki67) in tumors: did not reverse
[6]; intraperitoneal acetoacetate plus oral fluvastatin or niacin
  reversal by acetoacetate injection of fluvastatin- or niacin-attenuated tumor growth: could be reversed
[6]
  BRAF V600E-MEK1 binding in tumors: enhanced BRAF V600E-MEK1 association
  cell proliferation rates in tumors (Ki67 IHC staining): enhanced cell proliferation rates
  phosphorylation of MEK1 and ERK1/2 in tumors: enhanced phosphorylation of MEK1 and ERK1/2
  xenograft tumor growth (growth rates, sizes, masses): increased growth rates and masses of xenograft tumors; also recorded: increased tumor sizes; also recorded: selectively promotes
[6]; tumors
  reversal by acetoacetate injection of hypolipidemic agents' inhibitory effects (MEK1/ERK1/2 phosphorylation, BRAF V600E-MEK1 association, Ki67): effectively reversed
[15]; intraperitoneal acetoacetate plus fenofibrate
  rescue by acetoacetate injection of fenofibrate-decreased tumor growth: effectively rescued the decreased tumor growth
[15]; tumors
  reversal by acetoacetate injection of hypolipidemic agents' inhibitory effects (MEK1/ERK1/2 phosphorylation, BRAF V600E-MEK1 association, Ki67): effectively reversed

## O=C(O)c1cccnc1 [niacin]
[1]; effect of treatment
  serum cholesterol levels: marginally decreased serum cholesterol levels
  serum levels of acetoacetate: reduced serum levels of acetoacetate; also recorded: decrease serum acetoacetate levels
[6]
  BRAF V600E-MEK1 binding in tumors: decreased BRAF V600E-MEK1 association
  cell proliferation rates in tumors (Ki67 IHC staining): reduced cell proliferation rates
  phosphorylation of MEK1 and ERK1/2 in tumors: decreased phosphorylation of MEK1 and ERK1/2
  xenograft tumor growth (growth rates, sizes, masses): effectively attenuated tumor growth potential; also recorded: reduce BRAF V600E tumor growth

## CC(C)=O [acetone]
[4]
  BRAF V600E-MEK1 binding: did not affect
  cell proliferation rates: did not affect
  phosphorylation levels of MEK1 or ERK1/2: did not affect
BRAF V600E [5]
  binding in thermal melt shift assay: did not bind
BRAF V600E-MEK1 binding
  promotion of association between purified BRAF V600E and MEK1: did not
